≈ marks a conversion by molar mass, not a printed value.

The subject of one experiment is Streptococcus pneumoniae. The experiment in a line: Antibacterial activity against Streptococcus pneumoniae MTCC 1936 by broth microdilution assay method. The class given is functional.
For another experiment, the system named is Bacillus subtilis. The experiment in a line: Antibacterial activity against Bacillus subtilis MTCC 441 by broth microdilution assay method. The class given is functional.
A further experiment deals with Clostridium tetani. The experiment in a line: Antibacterial activity against Clostridium tetani MTCC 449 by broth microdilution assay method. The class given is functional.
In the next experiment the test system is Escherichia coli. The experiment in a line: Antibacterial activity against Escherichia coli MTCC 443 by broth microdilution assay method. The class given is functional.
The test system of another experiment is Salmonella typhi. The experiment in a line: Antibacterial activity against Salmonella typhi MTCC 98 by broth microdilution assay method. The class given is functional, Salmonella enterica subsp. enterica serovar Typhi. Conditions: Salmonella enterica.
The subject of another experiment is Vibrio cholerae. The experiment in a line: Antibacterial activity against Vibrio cholerae MTCC 3906 by broth microdilution assay method. The class given is functional.
The subject of experiment [1] is Mycobacterium tuberculosis. The experiment in a line: Antitubercular activity against Mycobacterium tuberculosis H37Rv at 6 ug/mL. The class given is functional.
The subject of a further experiment is Plasmodium falciparum. The experiment in a line: Antimalarial activity against Plasmodium falciparum. The class given is functional.

For the molecule `O=C1CCSC(c2ccc(F)cc2)N1CCCCNc1ccnc2cc(Cl)ccc12` (stereo unspecified), the MIC was 100 µg/mL (≈ 225 µM) against Streptococcus pneumoniae; 100 µg/mL (≈ 225 µM) in the experiment with Bacillus subtilis; 125 µg/mL (≈ 282 µM) against Clostridium tetani; 125 µg/mL (≈ 282 µM) with Escherichia coli; 62.5 µg/mL (≈ 141 µM) with Salmonella typhi; 62.5 µg/mL (≈ 141 µM) against Vibrio cholerae. The molecule also returned an inhibition at 6 µg/mL in experiment [1] of 65%. Moreover, the IC50 in the experiment on Plasmodium falciparum came to 0.092 µg/mL (≈ 0.207 µM).
`COc1ccc(C2SCCC(=O)N2CCCNc2ccnc3cc(Cl)ccc23)cc1` (stereo unspecified): the minimal inhibitory concentration (MIC) worked out at 125 µg/mL (≈ 283 µM) in the experiment on Streptococcus pneumoniae; 125 µg/mL (≈ 283 µM) against Bacillus subtilis; 250 µg/mL (≈ 566 µM) with Clostridium tetani; 250 µg/mL (≈ 566 µM) against Escherichia coli; 500 µg/mL (≈ 1130 µM) in the experiment with Salmonella typhi; 250 µg/mL (≈ 566 µM) against Vibrio cholerae. The same molecule gave an inhibition at 6 µg/mL in experiment [1] of 57%. In the experiment with Plasmodium falciparum, this molecule had an IC50 of 0.52 µg/mL (≈ 1.18 µM).
As to `O=C1CCSC(c2ccc(Br)cc2)N1CCCNc1ccnc2cc(Cl)ccc12` (stereo unspecified), the MIC against Streptococcus pneumoniae is 62.5 µg/mL (≈ 127 µM); in the experiment with Bacillus subtilis, 62.5 µg/mL (≈ 127 µM); in the experiment on Clostridium tetani it was 100 µg/mL (≈ 204 µM); against Escherichia coli it was 125 µg/mL (≈ 255 µM); with Salmonella typhi it was 62.5 µg/mL (≈ 127 µM); against Vibrio cholerae, 100 µg/mL (≈ 204 µM). Besides, in experiment [1], the inhibition at 6 µg/mL was determined as 87%. In the experiment with Plasmodium falciparum, the IC50 is 0.056 µg/mL (≈ 0.114 µM).
Consider `Cc1ccc(C2SCCC(=O)N2CCNc2ccnc3cc(Cl)ccc23)cc1` (stereo unspecified), for which the MIC was found to be 500 µg/mL (≈ 1210 µM) in the experiment with Streptococcus pneumoniae; 250 µg/mL (≈ 607 µM) against Bacillus subtilis; 250 µg/mL (≈ 607 µM) against Clostridium tetani; 250 µg/mL (≈ 607 µM) against Escherichia coli; 500 µg/mL (≈ 1210 µM) in the experiment with Salmonella typhi; 250 µg/mL (≈ 607 µM) with Vibrio cholerae. The inhibition at 6 µg/mL in experiment [1] amounted to 57%. Also, the midpoint of inhibition in the experiment with Plasmodium falciparum, the IC50, lay at 1.97 µg/mL (≈ 4.78 µM).
For `O=C1CCSC(c2cccc(F)c2)N1CCCNc1ccnc2cc(Cl)ccc12` (stereo unspecified), the MIC in the experiment with Streptococcus pneumoniae is 125 µg/mL (≈ 291 µM); against Bacillus subtilis, 125 µg/mL (≈ 291 µM); against Clostridium tetani, 250 µg/mL (≈ 581 µM); in the experiment on Escherichia coli, 250 µg/mL (≈ 581 µM); with Salmonella typhi it was 125 µg/mL (≈ 291 µM); against Vibrio cholerae, 250 µg/mL (≈ 581 µM). The inhibition at 6 µg/mL in experiment [1] is 52%. This molecule yielded an IC50 with Plasmodium falciparum of 1.12 µg/mL (≈ 2.6 µM).
Consider `COc1ccc(C2SCCC(=O)N2CCCCNc2ccnc3cc(Cl)ccc23)cc1` (stereo unspecified), for which the MIC against Streptococcus pneumoniae was determined as 250 µg/mL (≈ 548 µM); in the experiment with Bacillus subtilis, 250 µg/mL (≈ 548 µM); against Clostridium tetani it was 250 µg/mL (≈ 548 µM); with Escherichia coli, 500 µg/mL (≈ 1100 µM); in the experiment on Salmonella typhi, 250 µg/mL (≈ 548 µM); with Vibrio cholerae, 125 µg/mL (≈ 274 µM). Further, in experiment [1], the inhibition at 6 µg/mL came to 48%. The molecule also returned an IC50 in the experiment on Plasmodium falciparum of 0.81 µg/mL (≈ 1.78 µM).
Turning to `O=C(NN1C(=O)CCSC1c1ccc(Br)cc1)c1cnc2c(C(F)(F)F)cccc2c1O` (stereo unspecified), the MIC against Streptococcus pneumoniae is 125 µg/mL (≈ 237 µM); against Bacillus subtilis, 62.5 µg/mL (≈ 119 µM); against Clostridium tetani it was 31.2 µg/mL (≈ 59.4 µM); with Escherichia coli, 125 µg/mL (≈ 237 µM); against Salmonella typhi it was 31.2 µg/mL (≈ 59.4 µM); with Vibrio cholerae, 62.5 µg/mL (≈ 119 µM). The inhibition at 6 µg/mL in experiment [1] worked out at 98%. In the experiment on Plasmodium falciparum, this molecule registered an IC50 of 0.018 µg/mL (≈ 0.0342 µM).
As to `O=C1CCSC(c2ccc(O)cc2)N1CCNc1ccnc2cc(Cl)ccc12` (stereo unspecified), the MIC against Streptococcus pneumoniae is 250 µg/mL (≈ 604 µM); in the experiment on Bacillus subtilis it was 62.5 µg/mL (≈ 151 µM); against Clostridium tetani, 250 µg/mL (≈ 604 µM); with Escherichia coli, 500 µg/mL (≈ 1210 µM); in the experiment on Salmonella typhi, 250 µg/mL (≈ 604 µM); against Vibrio cholerae, 250 µg/mL (≈ 604 µM). The inhibition at 6 µg/mL in experiment [1] was determined as 74%. The same molecule returned an IC50 in the experiment on Plasmodium falciparum of 1.78 µg/mL (≈ 4.3 µM).
For `O=C(NN1C(=O)CCSC1c1ccc(Cl)cc1)c1cnc2c(C(F)(F)F)cccc2c1O` (stereo unspecified), the MIC was 250 µg/mL (≈ 519 µM) in the experiment on Streptococcus pneumoniae; 62.5 µg/mL (≈ 130 µM) against Bacillus subtilis; 125 µg/mL (≈ 259 µM) with Clostridium tetani; 250 µg/mL (≈ 519 µM) in the experiment on Escherichia coli; 250 µg/mL (≈ 519 µM) in the experiment on Salmonella typhi; 125 µg/mL (≈ 259 µM) in the experiment with Vibrio cholerae. In experiment [1], this molecule yielded an inhibition at 6 µg/mL of 90%. Further, the IC50 in the experiment on Plasmodium falciparum is 0.067 µg/mL (≈ 0.139 µM).
As for `O=C1CCSC(c2ccc(F)cc2)N1CCNc1ccnc2cc(Cl)ccc12` (stereo unspecified), the MIC in the experiment with Streptococcus pneumoniae was determined as 62.5 µg/mL (≈ 150 µM); in the experiment on Bacillus subtilis it was 62.5 µg/mL (≈ 150 µM); against Clostridium tetani, 15.6 µg/mL (≈ 37.5 µM); against Escherichia coli it was 62.5 µg/mL (≈ 150 µM); against Salmonella typhi, 62.5 µg/mL (≈ 150 µM); in the experiment on Vibrio cholerae, 125 µg/mL (≈ 301 µM). For the same molecule, the inhibition at 6 µg/mL in experiment [1] was 80%. Further, it took 0.081 µg/mL (≈ 0.195 µM) to reach half-maximal inhibition in the experiment on Plasmodium falciparum (IC50).
Consider `O=C(NN1C(=O)CCSC1c1ccc(O)cc1)c1cnc2c(C(F)(F)F)cccc2c1O` (stereo unspecified), for which the MIC in the experiment on Streptococcus pneumoniae turned out to be 250 µg/mL (≈ 539 µM); against Bacillus subtilis, 125 µg/mL (≈ 270 µM); against Clostridium tetani, 250 µg/mL (≈ 539 µM); against Escherichia coli, 250 µg/mL (≈ 539 µM); in the experiment with Salmonella typhi it was 125 µg/mL (≈ 270 µM); with Vibrio cholerae, 125 µg/mL (≈ 270 µM). The inhibition at 6 µg/mL in experiment [1] came to 79%. The molecule further showed an IC50 with Plasmodium falciparum of 1.58 µg/mL (≈ 3.41 µM).
Consider `O=C1CCSC(c2ccc(Cl)cc2)N1CCCNc1ccnc2cc(Cl)ccc12` (stereo unspecified), for which the MIC against Streptococcus pneumoniae stood at 62.5 µg/mL (≈ 140 µM); in the experiment with Bacillus subtilis it was 125 µg/mL (≈ 280 µM); in the experiment with Clostridium tetani, 250 µg/mL (≈ 560 µM); with Escherichia coli it was 125 µg/mL (≈ 280 µM); with Salmonella typhi it was 250 µg/mL (≈ 560 µM); in the experiment with Vibrio cholerae, 250 µg/mL (≈ 560 µM). Besides, at 6 µg/mL the inhibition in experiment [1] was 67%. For the same molecule, in the experiment with Plasmodium falciparum, half-maximal inhibition (IC50) required 0.12 µg/mL (≈ 0.269 µM).
